According to the NIST ThermoML archive (doi:10.1016/j.jct.2016.12.019):

Experiment: xn = mol fraction of the nth substance listed
Settings: 100 kPa, Liquid; for viscosity: Capillary tube (Ostwald / Ubbelohde) method; for speed of sound: Frequency=2 MHz, Linear variable-path acoustic interferometer; for mass density: Vibrating tube method

CCN(CC)c1ccccc1 [N,N-diethylaniline] + CCCCCCCCO
Settings | mass density [kg/m3] | speed of sound [m/s] | viscosity [mPa·s]
303.15 K, x1 = 0.1157 | 828.58 | 1338.2 | 5.469
303.15 K, x1 = 0.2012 | 836.5 | 1342.6 | 4.863
303.15 K, x1 = 0.3115 | 847.11 | 1349.2 | 4.178
303.15 K, x1 = 0.4221 | 858.24 | 1357.3 | 3.59
303.15 K, x1 = 0.5111 | 867.57 | 1364.9 | 3.18
303.15 K, x1 = 0.6217 | 879.68 | 1375.9 | 2.743
303.15 K, x1 = 0.7135 | 890.17 | 1386.8 | 2.433
303.15 K, x1 = 0.8063 | 901.22 | 1399.4 | 2.162
303.15 K, x1 = 0.9045 | 913.42 | 1414.7 | 1.915
303.15 K, x1 = 1 | 925.8 | 1432 | 1.711
308.15 K, x1 = 0.1157 | 824.98 | 1317.3 | 4.653
308.15 K, x1 = 0.2012 | 832.86 | 1321.9 | 4.155
308.15 K, x1 = 0.3115 | 843.43 | 1329.1 | 3.59
308.15 K, x1 = 0.4221 | 854.51 | 1337.7 | 3.132
308.15 K, x1 = 0.5111 | 863.81 | 1345.7 | 2.762
308.15 K, x1 = 0.6217 | 875.86 | 1357.3 | 2.397
308.15 K, x1 = 0.7135 | 886.3 | 1368.4 | 2.137
308.15 K, x1 = 0.8063 | 897.3 | 1381.4 | 1.913
308.15 K, x1 = 0.9045 | 909.45 | 1397.3 | 1.704
308.15 K, x1 = 1 | 921.8 | 1416 | 1.537
313.15 K, x1 = 0.1157 | 820.38 | 1300 | 3.991
313.15 K, x1 = 0.2012 | 828.3 | 1304.5 | 3.58
313.15 K, x1 = 0.3115 | 838.94 | 1311.6 | 3.112
313.15 K, x1 = 0.4221 | 850.09 | 1320.2 | 2.707
313.15 K, x1 = 0.5111 | 859.45 | 1328.2 | 2.422
313.15 K, x1 = 0.6217 | 871.58 | 1339.5 | 2.118
313.15 K, x1 = 0.7135 | 882.1 | 1350.5 | 1.899
313.15 K, x1 = 0.8063 | 893.18 | 1363.3 | 1.708
313.15 K, x1 = 0.9045 | 905.42 | 1379.3 | 1.536
313.15 K, x1 = 1 | 917.9 | 1398 | 1.4
318.15 K, x1 = 0.1157 | 815.85 | 1286.3 | 3.504
318.15 K, x1 = 0.2012 | 823.79 | 1290.4 | 3.151
318.15 K, x1 = 0.3115 | 834.47 | 1297 | 2.748
318.15 K, x1 = 0.4221 | 845.67 | 1304.9 | 2.398
318.15 K, x1 = 0.5111 | 855.06 | 1312.4 | 2.154
318.15 K, x1 = 0.6217 | 867.24 | 1323 | 1.889
318.15 K, x1 = 0.7135 | 877.8 | 1333.2 | 1.701
318.15 K, x1 = 0.8063 | 888.93 | 1345.1 | 1.535
318.15 K, x1 = 0.9045 | 901.24 | 1360.1 | 1.388
318.15 K, x1 = 1 | 913.8 | 1378 | 1.276

CCN(CC)c1ccccc1 [N,N-diethylaniline] + CCCCCCCCCO
Settings | mass density [kg/m3] | speed of sound [m/s] | viscosity [mPa·s]
303.15 K, x1 = 0.1136 | 829.82 | 1359 | 6.563
303.15 K, x1 = 0.2326 | 840.12 | 1362.8 | 5.409
303.15 K, x1 = 0.3469 | 850.43 | 1367.6 | 4.509
303.15 K, x1 = 0.4541 | 860.76 | 1373.5 | 3.804
303.15 K, x1 = 0.5549 | 871.13 | 1380.2 | 3.248
303.15 K, x1 = 0.6498 | 881.45 | 1387.8 | 2.805
303.15 K, x1 = 0.7293 | 890.62 | 1395.3 | 2.488
303.15 K, x1 = 0.8244 | 902.24 | 1405.9 | 2.166
303.15 K, x1 = 0.9041 | 912.58 | 1416.7 | 1.938
303.15 K, x1 = 1 | 925.8 | 1432 | 1.711
308.15 K, x1 = 0.1136 | 826.24 | 1336.3 | 5.491
308.15 K, x1 = 0.2326 | 836.48 | 1340.6 | 4.557
308.15 K, x1 = 0.3469 | 846.76 | 1346.2 | 3.828
308.15 K, x1 = 0.4541 | 857.04 | 1352.7 | 3.252
308.15 K, x1 = 0.5549 | 867.33 | 1360.1 | 2.794
308.15 K, x1 = 0.6498 | 877.63 | 1368.3 | 2.427
308.15 K, x1 = 0.7293 | 886.75 | 1376.3 | 2.164
308.15 K, x1 = 0.8244 | 898.32 | 1387.7 | 1.898
308.15 K, x1 = 0.9041 | 908.61 | 1399.2 | 1.714
308.15 K, x1 = 1 | 921.8 | 1416 | 1.537
313.15 K, x1 = 0.1136 | 822.7 | 1315.3 | 4.791
313.15 K, x1 = 0.2326 | 832.9 | 1320 | 3.988
313.15 K, x1 = 0.3469 | 843.13 | 1325.9 | 3.362
313.15 K, x1 = 0.4541 | 853.37 | 1332.7 | 2.867
313.15 K, x1 = 0.5549 | 863.63 | 1340.4 | 2.471
313.15 K, x1 = 0.6498 | 873.88 | 1348.9 | 2.154
313.15 K, x1 = 0.7293 | 882.96 | 1357.1 | 1.926
313.15 K, x1 = 0.8244 | 894.48 | 1368.8 | 1.697
313.15 K, x1 = 0.9041 | 904.74 | 1380.6 | 1.541
313.15 K, x1 = 1 | 917.9 | 1398 | 1.4
318.15 K, x1 = 0.1136 | 817.68 | 1295.7 | 3.979
318.15 K, x1 = 0.2326 | 827.96 | 1300.3 | 3.341
318.15 K, x1 = 0.3469 | 838.28 | 1306.2 | 2.843
318.15 K, x1 = 0.4541 | 848.61 | 1312.9 | 2.447
318.15 K, x1 = 0.5549 | 858.95 | 1320.6 | 2.128
318.15 K, x1 = 0.6498 | 869.3 | 1328.9 | 1.869
318.15 K, x1 = 0.7293 | 878.48 | 1337.1 | 1.683
318.15 K, x1 = 0.8244 | 890.11 | 1348.6 | 1.498
318.15 K, x1 = 0.9041 | 900.48 | 1360.3 | 1.377
318.15 K, x1 = 1 | 913.8 | 1378 | 1.276
